Patent US10590064B2, “Crystals of alanine N-acetic acid precursors, process to prepare them and their use” (NOURYON CHEMICALS INTERNATIONAL B.V., priority 2014, dated 2020)

What was measured:
Format in all cases: physicochemical
pH of 1 wt % in water = test: pH of 1 wt % in water
Description: Additionally the pH was measured as 1 wt % D,L-alanine diacetonitrile in water and this pH was compared to the pH of 1 wt % […].

[1] = Stability (hydrolysis) of D,L-alanine diacetonitrile in water, aqueous layers analyzed by NMR; details: demi-water, closed bottles, overnight at various temperatures
Description: (§1) The solubility of D,L-alanine diacetonitrile was determined at various temperatures to get a clear understanding of the solubility and stability of D,L-alanine diacetonitrile. The D,L-alanine diacetonitrile crystals obtained in Example 1 were added to demi-water and the samples in well-closed bottles were placed in ovens/refrigerators at various temperatures overnight.

[2] = Solubility of D,L-alanine diacetonitrile crystals in demi-water at various temperatures; details: overnight
Description: as §1

Row | Molecule | pH (1% in water) (pH of 1 wt % in water) | Hydrolysis of D,L-alanine diacetonitrile in aqueous layer (NMR) [1] | Solubility, wt % D,L-alanine diacetonitrile ([2]; 0° C.) | Solubility, wt % D,L-alanine diacetonitrile ([2]; 5° C.) | Solubility, wt % D,L-alanine diacetonitrile ([2]; 20° C.) | Solubility, wt % D,L-alanine diacetonitrile ([2]; 30° C.) | Solubility, wt % D,L-alanine diacetonitrile ([2]; 40° C.) | Solubility, wt % D,L-alanine diacetonitrile ([2]; 50° C.)
1 | CC(C(=O)[O-])N(CC#N)CC#N.[Na+] (racemic) [D,L-alanine diacetonitrile-Na, sodium salt of D,L-alanine diacetonitrile] | pH = 3.3. |  |  |  |  |  |  | 
2 | D,L-alanine diacetonitrile | pH = 2.2 | no or very little hydrolysis took place | 6 wt % | 7.9 wt % | 40.7 wt % | 75 wt % | 82.5 wt % | 95 wt %
